Measured values from patent publication US20160207930A1 (LEO PHARMA A/S, priority 2013, published 2016).
pIC50: −log10 of the molar value.

Assays:
NK1 Receptor = target: T1, NK1 Receptor (Homo sapiens, UniProt P25103); assay: NK1 receptor mediated intracellular [Ca2+] mobilization in U251 MG cells using FLIPR; type: cell-based; details: antagonism of Substance P (EC80), Fluo-4, read-out: NK1R mediated intracellular [Ca^2+] mobilization IC 50
T1 construct: Measurement of NK1 Receptor Mediated Intracellular [Ca^2+]; Mobilization in U251 MG Cells Using FLIPR; endogenous in cells; host or cells: U251 MG cells
Procedure, shortened: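 Fluo-4-loaded U251 MG cells preincubated with compound (0.5% DMSO final), checked 5 min for agonism, then 10 min at 37 °C before Substance P at EC80. Peak fluorescence change on FLIPR, normalized to 100 nM Aprepitant maximal response; IC50 by four-parameter logistic fit, reported as pIC50.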

[1] = Hepatic intrinsic clearance following incubation in human liver microsomes; type: in vitro ADME; details: 0.5 μM test compound, NADPH, 0-30 min, scaled to g liver
Procedure, shortened: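 Compound incubated at 37° C with microsomes diluted to 0.55 mg/mL protein in 50 mM potassium phosphate pH 7.4 plus NADPH regenerating system; sampled 0–30 min and analysed by LC-MS/MS. Clint from ln(% parent remaining) slope, scaled to mL/min/g liver; Eh derived assuming 25.7 g/kg liver, 20.7 mL/min/kg blood flow.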

T1 sequence (P25103 whole entry): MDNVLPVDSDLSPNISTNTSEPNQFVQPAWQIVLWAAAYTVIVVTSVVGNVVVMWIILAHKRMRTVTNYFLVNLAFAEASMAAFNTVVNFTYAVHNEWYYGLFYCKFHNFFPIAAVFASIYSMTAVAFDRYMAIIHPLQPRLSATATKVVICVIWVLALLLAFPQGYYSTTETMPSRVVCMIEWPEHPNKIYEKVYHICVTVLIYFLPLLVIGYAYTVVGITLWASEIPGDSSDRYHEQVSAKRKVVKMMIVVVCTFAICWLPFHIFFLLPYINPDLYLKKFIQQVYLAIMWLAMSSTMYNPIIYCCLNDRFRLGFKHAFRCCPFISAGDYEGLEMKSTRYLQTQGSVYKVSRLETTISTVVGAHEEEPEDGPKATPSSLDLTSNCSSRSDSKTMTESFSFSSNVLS

Structure (SMILES) | pIC50 (NK1 Receptor) | Human in vitro Clint [1]
Cc1cc([C@@H](C)N(C)C(=O)N2CCN3C(=O)CC[C@H]3[C@@H]2c2cccc(C)c2C)cc(C(F)(F)F)c1 [Compound 65] | 9.44 | >200 mL/min/g
Cc1c(Cl)cccc1[C@H]1[C@@H]2CCC(=O)N2CCN1C(=O)N(C)[C@H](C)c1cc(C(F)(F)F)cc(C(F)(F)F)c1 [Compound 66, (1S,8aS)—N—((R)-1-(3,5-bis(trifluoromethyl)phenyl)ethyl)-1-(3-chloro-2-methylphenyl)-N-methyl-6-oxohexahydropyrrolo[1,2-a]pyrazine-2(1H)-carboxamide] | 9.85 | 51 mL/min/g
CCc1ccccc1[C@H]1[C@@H]2CCC(=O)N2CCN1C(=O)N(C)[C@H](C)c1cc(C(F)(F)F)cc(C(F)(F)F)c1 [Compound 68, N—((R)-1-(3,5-bis(trifluoromethyl)phenyl)ethyl)-1-(2-ethylphenyl)-N-methyl-6-oxohexahydropyrrolo[1,2-a]pyrazine-2(1H)-carboxamide] | 9.59 | >200 mL/min/g
C[C@H](c1cc(C(F)(F)F)cc(C(F)(F)F)c1)N(C)C(=O)N1CCN2C(=O)CC[C@H]2[C@@H]1c1ccccc1CO [Compound 74, (1S,8aS)—N—((R)-1-(3,5-bis(trifluoromethyl)phenyl)ethyl)-1-(2-(hydroxymethyl)phenyl)-N-methyl-6-oxohexahydropyrrolo[1,2-a]pyrazine-2(1H)-carboxamide] | 9.96 | >200 mL/min/g
Cc1csc([C@H]2[C@@H]3CCC(=O)N3CCN2C(=O)N(C)[C@H](C)c2cc(C(F)(F)F)cc(C(F)(F)F)c2)c1C [Compound 75, (1R,8aS)—N—((R)-1-(3,5-bis(trifluoromethyl)phenyl)ethyl)-1-(3,4-dimethylthiophen-2-yl)-N-methyl-6-oxohexahydropyrrolo[1,2-a]pyrazine-2(1H)-carboxamide] | 9.47 | >200 mL/min/g
CCc1cc([C@@H](C)N(C)C(=O)N2CCN3C(=O)CC[C@H]3[C@@H]2c2scc(C)c2C)cc(C(F)(F)F)c1 [Compound 76, (1R,8aS)-1-(3,4-dimethylthiophen-2-yl)-N—((R)-1-(3-ethyl-5-(trifluoromethyl)phenyl)ethyl)-N-methyl-6-oxohexahydropyrrolo[1,2-a]pyrazine-2(1H)-carboxamide] | 9.59 | >200 mL/min/g
COc1cccc([C@H]2[C@@H]3CCC(=O)N3CCN2C(=O)N(C)[C@H](C)c2cc(C(F)(F)F)cc(C(F)(F)F)c2)c1C [Compound 77, (1S,8aS)—N—((R)-1-(3,5-bis(trifluoromethyl)phenyl)ethyl)-1-(3-methoxy-2-methylphenyl)-N-methyl-6-oxohexahydropyrrolo[1,2-a]pyrazine-2(1H)-carboxamide] | 9.28 | >200 mL/min/g
COc1cccc([C@H]2[C@@H]3CCC(=O)N3CCN2C(=O)N(C)[C@H](C)c2cc(C(C)C)cc(C(F)(F)F)c2)c1C [Compound 78, (1S,8aS)—N—((R)-1-(3-isopropyl-5-(trifluoromethyl)phenyl)ethyl)-1-(3-methoxy-2-methylphenyl)-N-methyl-6-oxohexahydropyrrolo[1,2-a]pyrazine-2(1H)-carboxamide] | 8.73 | >200 mL/min/g
C[C@H](c1cc(C(F)(F)F)cc(C(F)(F)F)c1)N(C)C(=O)N1CCN2C(=O)CC[C@H]2[C@@H]1c1cccc2c1CCC2 [Compound 79, (1S,8aS)—N—((R)-1-(3,5-bis(trifluoromethyl)phenyl)ethyl)-1-(2,3-dihydro-1H-inden-4-yl)-N-methyl-6-oxohexahydropyrrolo[1,2-a]pyrazine-2(1H)-carboxamide] | 8.59 | >200 mL/min/g
CCc1cc([C@@H](C)N(C)C(=O)N2CCN3C(=O)CC[C@H]3[C@@H]2c2cccc3c2CCC3)cc(C(F)(F)F)c1 [Compound 80, (1S,8aS)-1-(2,3-dihydro-1H-inden-4-yl)-N—((R)-1-(3-ethyl-5-(trifluoromethyl)phenyl)ethyl)-N-methyl-6-oxohexahydropyrrolo[1,2-a]pyrazine-2(1H)-carboxamide] | 9.10 | >200 mL/min/g
